ChEMBL document CHEMBL3352433, “Class II but Not Second Class-Prospects for the Development of Class II PI3K Inhibitors” (ACS Med Chem Lett, 2015)

Tests used:
[1] = target: Phosphatidylinositol 4-phosphate 3-kinase C2 domain-containing subunit alpha (Homo sapiens, UniProt O00443); assay: Inhibition of human PI3KC2alpha by non-radiometric ADP-Glo assay
[2] = target: Phosphatidylinositol 4-phosphate 3-kinase C2 domain-containing subunit beta (Homo sapiens, UniProt O00750); assay: Inhibition of human PI3KC2beta by non-radiometric ADP-Glo assay
[3] = target: DNA-dependent protein kinase catalytic subunit (Homo sapiens, UniProt P78527); assay: Inhibition of human DNA-PK by non-radiometric ADP-Glo assay
DNA-dependent protein kinase catalytic subunit, sequence (P78527 whole entry): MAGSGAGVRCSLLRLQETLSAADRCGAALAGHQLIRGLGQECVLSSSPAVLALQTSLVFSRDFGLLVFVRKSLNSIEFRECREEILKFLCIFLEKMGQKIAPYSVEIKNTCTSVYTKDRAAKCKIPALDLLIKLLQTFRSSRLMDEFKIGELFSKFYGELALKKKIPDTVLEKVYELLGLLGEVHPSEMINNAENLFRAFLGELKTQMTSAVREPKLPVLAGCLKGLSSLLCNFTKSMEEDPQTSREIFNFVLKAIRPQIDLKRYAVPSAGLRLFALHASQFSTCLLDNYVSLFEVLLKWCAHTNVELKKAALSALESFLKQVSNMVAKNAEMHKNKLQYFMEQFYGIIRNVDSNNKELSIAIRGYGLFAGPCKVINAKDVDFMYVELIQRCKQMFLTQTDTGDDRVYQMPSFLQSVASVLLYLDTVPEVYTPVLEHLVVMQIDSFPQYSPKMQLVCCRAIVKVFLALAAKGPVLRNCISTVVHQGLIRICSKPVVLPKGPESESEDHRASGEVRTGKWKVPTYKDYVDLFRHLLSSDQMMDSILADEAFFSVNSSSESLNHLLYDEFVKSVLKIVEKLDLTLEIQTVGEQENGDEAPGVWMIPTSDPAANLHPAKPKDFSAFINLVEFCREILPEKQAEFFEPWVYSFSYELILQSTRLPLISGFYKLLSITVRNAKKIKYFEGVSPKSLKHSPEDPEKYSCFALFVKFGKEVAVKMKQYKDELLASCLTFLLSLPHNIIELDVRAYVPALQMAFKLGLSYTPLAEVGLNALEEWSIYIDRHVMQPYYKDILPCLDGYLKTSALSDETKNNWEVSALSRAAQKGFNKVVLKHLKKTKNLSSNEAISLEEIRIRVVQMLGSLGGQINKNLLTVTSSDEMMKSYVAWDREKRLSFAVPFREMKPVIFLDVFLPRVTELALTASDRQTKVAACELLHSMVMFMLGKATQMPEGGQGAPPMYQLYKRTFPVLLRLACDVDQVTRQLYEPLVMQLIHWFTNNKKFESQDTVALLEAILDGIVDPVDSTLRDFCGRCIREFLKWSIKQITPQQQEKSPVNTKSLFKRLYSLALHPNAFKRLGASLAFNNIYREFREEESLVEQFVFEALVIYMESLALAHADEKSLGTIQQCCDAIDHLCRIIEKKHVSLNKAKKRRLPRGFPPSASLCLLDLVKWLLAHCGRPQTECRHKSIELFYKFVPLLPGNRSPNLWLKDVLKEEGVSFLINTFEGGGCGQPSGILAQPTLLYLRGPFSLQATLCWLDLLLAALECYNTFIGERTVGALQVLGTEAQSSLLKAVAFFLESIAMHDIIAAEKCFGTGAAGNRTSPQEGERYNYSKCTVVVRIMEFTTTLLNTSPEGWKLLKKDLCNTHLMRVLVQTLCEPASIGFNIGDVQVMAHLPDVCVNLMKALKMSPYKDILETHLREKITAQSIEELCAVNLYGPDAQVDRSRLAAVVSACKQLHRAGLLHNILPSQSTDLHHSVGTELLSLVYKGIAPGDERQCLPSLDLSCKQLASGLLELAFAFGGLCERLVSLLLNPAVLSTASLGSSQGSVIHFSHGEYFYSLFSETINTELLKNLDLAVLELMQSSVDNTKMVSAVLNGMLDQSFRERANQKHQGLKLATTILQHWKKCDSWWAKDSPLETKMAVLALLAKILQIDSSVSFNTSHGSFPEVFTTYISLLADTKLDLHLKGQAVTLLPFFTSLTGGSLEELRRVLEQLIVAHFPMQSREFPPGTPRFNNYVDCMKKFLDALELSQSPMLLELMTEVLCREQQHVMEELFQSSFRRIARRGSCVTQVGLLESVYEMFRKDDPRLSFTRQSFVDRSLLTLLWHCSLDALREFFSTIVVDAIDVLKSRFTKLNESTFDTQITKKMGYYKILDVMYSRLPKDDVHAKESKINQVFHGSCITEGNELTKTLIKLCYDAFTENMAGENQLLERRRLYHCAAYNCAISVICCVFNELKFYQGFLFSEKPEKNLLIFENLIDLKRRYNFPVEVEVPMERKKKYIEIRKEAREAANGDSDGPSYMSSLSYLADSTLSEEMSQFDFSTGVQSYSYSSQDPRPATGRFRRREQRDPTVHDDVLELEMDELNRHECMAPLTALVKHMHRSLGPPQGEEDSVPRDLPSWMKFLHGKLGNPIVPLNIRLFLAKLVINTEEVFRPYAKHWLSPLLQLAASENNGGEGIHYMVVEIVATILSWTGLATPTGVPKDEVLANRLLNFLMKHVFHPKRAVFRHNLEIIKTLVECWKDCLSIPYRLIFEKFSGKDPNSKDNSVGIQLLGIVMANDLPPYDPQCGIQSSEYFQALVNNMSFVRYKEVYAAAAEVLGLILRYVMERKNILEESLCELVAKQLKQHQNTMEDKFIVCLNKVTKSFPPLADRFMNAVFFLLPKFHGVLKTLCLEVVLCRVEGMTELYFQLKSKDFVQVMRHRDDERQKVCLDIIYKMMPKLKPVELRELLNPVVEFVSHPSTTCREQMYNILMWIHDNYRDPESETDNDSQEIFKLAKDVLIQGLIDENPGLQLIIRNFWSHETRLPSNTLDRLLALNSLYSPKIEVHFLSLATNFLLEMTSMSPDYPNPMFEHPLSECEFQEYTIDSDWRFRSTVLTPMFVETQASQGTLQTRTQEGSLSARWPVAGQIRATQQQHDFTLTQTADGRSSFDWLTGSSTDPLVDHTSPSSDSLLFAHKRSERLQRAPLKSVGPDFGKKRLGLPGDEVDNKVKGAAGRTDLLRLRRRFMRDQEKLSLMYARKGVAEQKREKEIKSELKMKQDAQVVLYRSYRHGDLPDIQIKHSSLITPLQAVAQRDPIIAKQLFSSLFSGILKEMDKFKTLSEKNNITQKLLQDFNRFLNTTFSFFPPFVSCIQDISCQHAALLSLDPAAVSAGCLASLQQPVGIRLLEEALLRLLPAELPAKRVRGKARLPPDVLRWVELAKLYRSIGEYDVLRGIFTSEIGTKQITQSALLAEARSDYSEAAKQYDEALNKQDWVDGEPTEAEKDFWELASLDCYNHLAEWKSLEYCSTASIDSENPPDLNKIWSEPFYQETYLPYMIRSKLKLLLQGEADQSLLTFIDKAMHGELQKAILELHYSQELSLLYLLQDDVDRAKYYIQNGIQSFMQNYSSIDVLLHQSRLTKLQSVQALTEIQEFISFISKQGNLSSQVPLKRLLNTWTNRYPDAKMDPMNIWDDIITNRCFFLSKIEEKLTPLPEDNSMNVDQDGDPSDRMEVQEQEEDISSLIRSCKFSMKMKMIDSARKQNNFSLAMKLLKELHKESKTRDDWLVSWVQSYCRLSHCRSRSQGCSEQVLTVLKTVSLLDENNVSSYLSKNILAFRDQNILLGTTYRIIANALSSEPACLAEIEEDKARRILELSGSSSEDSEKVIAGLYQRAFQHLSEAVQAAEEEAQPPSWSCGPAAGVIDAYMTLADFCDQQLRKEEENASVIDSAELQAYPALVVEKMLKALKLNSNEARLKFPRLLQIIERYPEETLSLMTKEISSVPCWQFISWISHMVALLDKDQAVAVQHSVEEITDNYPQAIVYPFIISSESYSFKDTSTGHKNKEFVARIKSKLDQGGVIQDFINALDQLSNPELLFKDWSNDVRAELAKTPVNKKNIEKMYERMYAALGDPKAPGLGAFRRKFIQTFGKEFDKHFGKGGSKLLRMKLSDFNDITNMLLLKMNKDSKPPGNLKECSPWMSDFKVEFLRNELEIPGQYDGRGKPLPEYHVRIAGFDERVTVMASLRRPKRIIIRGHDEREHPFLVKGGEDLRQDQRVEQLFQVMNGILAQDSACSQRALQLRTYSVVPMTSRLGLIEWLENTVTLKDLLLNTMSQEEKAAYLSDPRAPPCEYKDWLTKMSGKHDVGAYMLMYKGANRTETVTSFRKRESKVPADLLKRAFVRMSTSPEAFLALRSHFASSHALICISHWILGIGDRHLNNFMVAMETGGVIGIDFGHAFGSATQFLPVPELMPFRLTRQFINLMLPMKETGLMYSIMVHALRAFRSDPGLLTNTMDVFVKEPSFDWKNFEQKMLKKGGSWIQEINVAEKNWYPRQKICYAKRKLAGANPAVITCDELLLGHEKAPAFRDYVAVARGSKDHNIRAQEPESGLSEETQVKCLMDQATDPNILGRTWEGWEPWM

[4] = Inhibition of human class 1 PI3K by non-radiometric ADP-Glo assay
[5] = Inhibition of human class 4 PI3K by non-radiometric ADP-Glo assay
[6] = target: Serine/threonine-protein kinase mTOR (Homo sapiens, UniProt P42345); assay: Inhibition of human mTOR by non-radiometric ADP-Glo assay

SMILES: CC(=O)Nc1nc(C)c(-c2ccc(Cl)c(S(=O)(=O)NCCO)c2)s1
- IC50 [1]: 16 µM
- IC50 [2]: 0.14 µM
- IC50 [3]: 0.064 µM

SMILES: COc1ccc2c(c1OC)N=C(NC(=O)c1cccnc1)N1CCN=C21
- IC50 [1]: 0.047 µM
- IC50 [2]: 0.064 µM
- IC50 [3]: 0.013 µM

SMILES: CC(=O)Nc1ccc2nc(-c3cccc(NS(=O)(=O)c4ccccc4)c3)nc(N3CCOCC3)c2c1
- IC50 [2]: 0.63 µM
- IC50 [4]: > 10 µM
- IC50 [5]: > 100 µM

SMILES: O=c1cc(N2CCOCC2)oc2c(-c3ccccc3)cccc12 [LY-294002]
- IC50 [1]: 27 µM
- IC50 [2]: 10.4 µM
- IC50 [6]: 3.9 µM

SMILES: CC[C@H](Nc1ncnc2[nH]cnc12)c1nc2cccc(F)c2c(=O)n1-c1ccccc1 [IDELALISIB]
- IC50 [2]: > 1 µM

SMILES: FC(F)c1nc2ccccc2n1-c1nc(N2CCOCC2)nc(N2CCOCC2)n1 [ZSTK-474]
- IC50 [1]: > 100 µM
- IC50 [2]: 0.18 µM
- IC50 [6]: 0.37 µM

SMILES: CS(=O)(=O)N1CCN(Cc2cc3nc(-c4cccc5[nH]ncc45)nc(N4CCOCC4)c3s2)CC1 [PICTILISIB]
- IC50 [1]: > 100 µM

SMILES: O=C1NC(=S)S/C1=C/c1ccc2c(c1)N(Cc1ccc(F)c(Cl)c1)C(=O)CO2
- IC50 [1]: 0.14 µM
- IC50 [2]: 0.37 µM
- IC50 [3]: 1.5 µM

SMILES: Oc1cccc(-c2nc(N3CCOCC3)c3oc4ncccc4c3n2)c1 [PI-103]
- IC50 [1]: 1 µM

SMILES: CC(=O)Nc1ccc2nc(-c3cccc(NS(=O)(=O)c4cccc5ccccc45)c3)nc(N3CCOCC3)c2c1
- IC50 [2]: 0.53 µM
- IC50 [4]: > 10 µM
- IC50 [5]: > 100 µM
